From EP0414688B1, “PROCESS FOR REGULATING THE ABSORPTION RATE OF DRUGS AND A PHARMACEUTICAL FORMULATION” (NEUVONEN, Pertti J., priority 1988, dated 1989)

What was measured:
[1] = cross-over study of oral absorption with concomitant magnesium hydroxide; type: in vivo, test persons
Protocol: In persons having a poor absorption of fenamates the increase of peak concentrations of e.g. tolfenamic acid can be up to 10-fold through the action of magnesium hydroxide (fig. 4).
Since medicines are generally taken with water, the administration of pharmaceutical tablets in the above tests was immediately followed by 150 ml of water with magnesium hydroxide blended therein.

[2] = Pentikainen et al., European Journal of Clinical Pharmacology 1984; cited from earlier work

| increase of peak concentrations through the action of magnesium hydroxide ([1]; human, in vivo) | Compound | rate of absorption ([1]; ibuprofen 400 mg (tabl. BURANA), concomitant ingestion of Mg-hydroxide) | absorption from alimentary canal [2] |
| --- | --- | --- | --- |
|  | CC(C)Cc1ccc(C(C)C(=O)O)cc1 (stereo not drawn) [ibuprofen] | accelerated significantly |  |
| up to 10 fold | Cc1c(Cl)cccc1Nc1ccccc1C(=O)O [tolfenamic acid] |  | relatively slow |
